16 compounds from patent US20250136595A1, “ACYLATED HETEROCYCLIC QUINAZOLINE DERIVATIVES AS INHIBITORS OF ERBB2” (Enliven Inc., priority 2022, published 2025) can be followed below.

For orientation: IC50 means the concentration needed to halve the response being measured.

Each structure is given as a SMILES string.

One experiment deals with Ba/F3 ERBB2 YVMA (Homo sapiens, UniProt P04626, DUP772-775, cells depend on it). Description: Cell viability assay (CellTiter Glo) in Ba/F3 cells engineered to express ERBB2 YVMA. In kind it is cell-based, mouse. As to conditions: Ba/F3 cells expressing human ERBB2 YVMA mutant, 72 hours, % viability, read-out: Ba/F3 ERBB2 YVMA IC50. In short, it runs like this: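 IL-3-independent mouse Ba/F3 line stably transduced with human ERBB2 YVMA, seeded at 3000 cells/well, exposed to serially diluted compound (≤0.1% DMSO) for 72 h at 37° C. ATP read by CellTiter Glo luminescence, normalised to DMSO and media-only controls; sigmoidal nonlinear regression fit.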
Sequence of Ba/F3 ERBB2 YVMA (P04626 with tags, fused parts or gaps DUP772-775): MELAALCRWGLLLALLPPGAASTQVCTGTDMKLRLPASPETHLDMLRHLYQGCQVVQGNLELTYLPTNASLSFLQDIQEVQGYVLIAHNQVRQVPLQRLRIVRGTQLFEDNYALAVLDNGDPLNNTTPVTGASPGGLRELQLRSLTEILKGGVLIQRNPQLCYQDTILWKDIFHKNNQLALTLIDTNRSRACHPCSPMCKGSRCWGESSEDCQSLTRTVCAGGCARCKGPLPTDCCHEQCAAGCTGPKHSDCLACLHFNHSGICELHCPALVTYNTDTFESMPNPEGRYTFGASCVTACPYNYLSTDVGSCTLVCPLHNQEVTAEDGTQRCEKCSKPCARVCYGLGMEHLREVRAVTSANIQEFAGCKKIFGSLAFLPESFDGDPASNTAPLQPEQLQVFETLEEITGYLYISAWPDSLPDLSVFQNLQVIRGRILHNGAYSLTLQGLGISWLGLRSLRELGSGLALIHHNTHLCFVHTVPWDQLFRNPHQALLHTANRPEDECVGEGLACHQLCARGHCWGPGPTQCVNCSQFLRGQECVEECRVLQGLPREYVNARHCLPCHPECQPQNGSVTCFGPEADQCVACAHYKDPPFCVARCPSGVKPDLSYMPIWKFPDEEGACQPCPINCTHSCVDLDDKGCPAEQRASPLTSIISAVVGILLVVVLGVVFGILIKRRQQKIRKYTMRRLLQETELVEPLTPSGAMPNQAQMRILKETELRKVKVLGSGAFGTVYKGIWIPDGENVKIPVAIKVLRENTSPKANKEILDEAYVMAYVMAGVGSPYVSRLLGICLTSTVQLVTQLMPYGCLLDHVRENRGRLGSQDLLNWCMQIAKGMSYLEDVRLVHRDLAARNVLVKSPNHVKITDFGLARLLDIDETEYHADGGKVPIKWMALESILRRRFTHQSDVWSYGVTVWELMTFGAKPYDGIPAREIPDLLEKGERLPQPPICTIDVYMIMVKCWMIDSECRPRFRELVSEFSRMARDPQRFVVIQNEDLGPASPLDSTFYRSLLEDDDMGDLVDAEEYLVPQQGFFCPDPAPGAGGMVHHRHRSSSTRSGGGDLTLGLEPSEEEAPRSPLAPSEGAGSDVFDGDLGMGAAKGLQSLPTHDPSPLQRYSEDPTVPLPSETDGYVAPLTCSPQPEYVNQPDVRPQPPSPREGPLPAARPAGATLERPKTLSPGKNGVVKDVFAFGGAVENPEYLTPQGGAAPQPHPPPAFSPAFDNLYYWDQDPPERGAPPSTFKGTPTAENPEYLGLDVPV

The target in experiment [1] is T1, phosphorylated ERBB2 (pERBB2) (Homo sapiens, UniProt P04626).
T1 construct: endogenous in cells; host or cells: BT-474
T1 sequence (P04626 23-1255): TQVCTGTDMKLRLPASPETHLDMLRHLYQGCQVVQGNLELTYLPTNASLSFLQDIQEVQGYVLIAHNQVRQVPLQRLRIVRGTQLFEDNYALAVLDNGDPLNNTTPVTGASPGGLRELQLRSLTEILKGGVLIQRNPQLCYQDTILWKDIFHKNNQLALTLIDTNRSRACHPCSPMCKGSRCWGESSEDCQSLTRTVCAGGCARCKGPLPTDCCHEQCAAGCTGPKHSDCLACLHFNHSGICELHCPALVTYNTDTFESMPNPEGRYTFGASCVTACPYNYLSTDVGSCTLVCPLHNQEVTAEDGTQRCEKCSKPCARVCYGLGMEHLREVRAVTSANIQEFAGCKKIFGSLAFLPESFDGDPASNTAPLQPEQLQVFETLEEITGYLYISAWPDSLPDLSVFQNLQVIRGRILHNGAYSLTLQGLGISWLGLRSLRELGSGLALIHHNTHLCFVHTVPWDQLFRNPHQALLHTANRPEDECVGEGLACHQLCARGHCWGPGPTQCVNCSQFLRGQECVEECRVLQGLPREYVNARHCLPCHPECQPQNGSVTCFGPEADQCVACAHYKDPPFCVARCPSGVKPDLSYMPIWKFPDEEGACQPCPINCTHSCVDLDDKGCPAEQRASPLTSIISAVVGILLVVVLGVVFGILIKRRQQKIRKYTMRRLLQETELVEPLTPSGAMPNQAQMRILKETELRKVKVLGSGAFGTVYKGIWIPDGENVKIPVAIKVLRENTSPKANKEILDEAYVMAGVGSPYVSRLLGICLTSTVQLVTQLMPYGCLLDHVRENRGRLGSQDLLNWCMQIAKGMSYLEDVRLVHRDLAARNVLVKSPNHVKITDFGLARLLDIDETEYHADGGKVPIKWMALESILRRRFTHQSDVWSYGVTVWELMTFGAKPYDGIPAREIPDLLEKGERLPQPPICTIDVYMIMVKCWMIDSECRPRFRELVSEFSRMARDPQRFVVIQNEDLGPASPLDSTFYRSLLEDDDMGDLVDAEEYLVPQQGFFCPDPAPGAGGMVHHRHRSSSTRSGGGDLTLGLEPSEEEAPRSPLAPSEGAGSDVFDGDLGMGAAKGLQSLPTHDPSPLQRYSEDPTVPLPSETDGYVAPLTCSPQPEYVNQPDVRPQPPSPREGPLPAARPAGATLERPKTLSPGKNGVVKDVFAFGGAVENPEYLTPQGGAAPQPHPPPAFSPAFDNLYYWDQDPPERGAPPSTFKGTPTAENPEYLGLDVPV
Description: Detection of phosphorylated ERBB2 (pERBB2) by ELISA in BT-474 cells. The experiment is classed as cell-based. As to conditions: four hour incubation with compound. A digest of the protocol: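 BT-474 cells treated 4 h at 37 °C, 5% CO2 with four-fold dilutions (10 μM to 0.01 nM final). Lysates analysed by ELISA for pERBB2, TMB read at OD 450 nm. % relative activity normalised to no-cell (low) and 0.1% DMSO-treated (high) controls.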
(An ELISA detects its analyte on a solid surface through an enzyme-linked reagent.)

Experiment [2] deals with T2, phosphorylated EGFR (pEGFR) (Homo sapiens, UniProt P00533).
T2 construct: performed to measure phosphorylated EGFR levels using A431 cells; endogenous in cells; host or cells: A431
T2 sequence (P00533 25-1210): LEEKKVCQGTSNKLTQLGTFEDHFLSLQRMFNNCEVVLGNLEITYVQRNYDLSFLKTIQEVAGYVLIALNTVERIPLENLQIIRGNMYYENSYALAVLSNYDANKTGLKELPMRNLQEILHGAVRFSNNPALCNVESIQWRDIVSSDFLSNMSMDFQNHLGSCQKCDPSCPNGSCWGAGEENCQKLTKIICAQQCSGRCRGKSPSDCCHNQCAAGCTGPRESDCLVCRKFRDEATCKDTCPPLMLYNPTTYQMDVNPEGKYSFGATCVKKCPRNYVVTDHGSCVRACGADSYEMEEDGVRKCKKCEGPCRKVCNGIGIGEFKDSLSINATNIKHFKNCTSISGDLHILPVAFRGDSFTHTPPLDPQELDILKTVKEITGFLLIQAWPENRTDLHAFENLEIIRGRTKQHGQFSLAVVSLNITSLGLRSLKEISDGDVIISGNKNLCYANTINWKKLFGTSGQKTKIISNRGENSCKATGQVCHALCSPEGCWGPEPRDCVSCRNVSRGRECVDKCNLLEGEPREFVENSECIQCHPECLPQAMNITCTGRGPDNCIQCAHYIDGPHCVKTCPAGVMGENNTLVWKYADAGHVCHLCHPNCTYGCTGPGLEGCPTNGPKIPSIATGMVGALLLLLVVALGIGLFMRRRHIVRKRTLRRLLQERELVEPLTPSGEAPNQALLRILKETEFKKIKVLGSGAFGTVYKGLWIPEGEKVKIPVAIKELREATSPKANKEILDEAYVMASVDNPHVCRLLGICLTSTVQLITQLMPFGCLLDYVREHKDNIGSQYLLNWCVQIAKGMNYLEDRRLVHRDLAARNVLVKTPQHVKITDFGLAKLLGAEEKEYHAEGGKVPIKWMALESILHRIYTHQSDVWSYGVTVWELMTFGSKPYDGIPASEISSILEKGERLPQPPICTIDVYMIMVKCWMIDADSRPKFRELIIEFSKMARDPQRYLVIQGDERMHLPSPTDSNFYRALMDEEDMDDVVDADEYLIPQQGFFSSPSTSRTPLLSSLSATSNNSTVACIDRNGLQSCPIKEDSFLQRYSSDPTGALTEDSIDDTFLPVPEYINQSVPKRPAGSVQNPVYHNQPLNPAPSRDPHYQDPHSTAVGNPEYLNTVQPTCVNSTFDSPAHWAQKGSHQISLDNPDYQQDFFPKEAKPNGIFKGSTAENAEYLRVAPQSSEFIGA
The experiment in a line: Detection of phosphorylated EGFR (pEGFR) in EGF-stimulated A431 cells (AlphaLISA). The experiment is classed as cell-based. As to conditions: A431 cells (10% FBS), 4 hours incubation, EGF 30 ng/mL for 10 minutes. A digest of the protocol:
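Cells in 10% FBS treated with compound 4 h at 37° C., then stimulated 10 min with 30 ng/mL EGF, lysed, and pEGFR measured by AlphaLISA. Inhibition normalized to DMSO and staurosporine controls; IC50 from four-parameter logistic fit.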
(In general: In Alpha technology, singlet oxygen from a donor bead excites a nearby acceptor bead.)

With `C=CC(=O)N1CC[C@H](Oc2ccc3ncnc(Nc4ccc(Oc5ccc6c(c5)ncn6C)c(C)c4)c3c2)C1` [Compound 38, 1-[(3S)-3-{[4-({3-methyl-4-[(1-methyl-1,3-benzodiazol-5-yl)oxy]phenyl}amino)quinazolin-6-yl]oxy}pyrrolidin-1-yl]prop-2-en-1-one], the GI50 on Ba/F3 ERBB2 YVMA came out at 7.22 nM. Besides, the IC50 in experiment [1] is 7.56 nM; in experiment [2] it was 462 nM.
The like results for `CC#CC(=O)N1CCN(c2ccc3ncnc(Nc4ccc(Oc5ccn6ncnc6c5)c(C)c4)c3n2)C[C@@H]1C` [Compound 22, 1-[(2S)-2-methyl-4-{4-[(3-methyl-4-{[1,2,4]triazolo[1,5-a]pyridin-7-yloxy}phenyl)amino]pyrido[3,2-d]pyrimidin-6-yl}piperazin-1-yl]but-2-yn-1-one] were, in that order, 34.9 nM, 62.8 nM and more than 10000 nM.
As to `C=CC(=O)N1CC[C@H](Oc2ccc3ncnc(Nc4ccc(Oc5ccn6ncnc6c5)c(C)c4)c3c2)C1` [Compound 1, (S)-1-(3-((4-((4-([1,2,4]triazolo[1,5-a]pyridin-7-yloxy)-3-methylphenyl)amino)quinazolin-6-yl)oxy)pyrrolidin-1-yl)prop-2-en-1-one], the GI50 at Ba/F3 ERBB2 YVMA turned out to be 8.98 nM. The values for the IC50 in experiment [1] and in experiment [2] were 5.68 nM and 328 nM, respectively.
For `C=CC(=O)N1CCN(c2ccc3ncnc(Nc4ccc(Cc5ccn6ncnc6c5)c(C)c4)c3n2)CC1` [Compound 110, 1-(4-(4-((4-([1,2,4]triazolo[1,5-a]pyridin-7-ylmethyl)-3-methylphenyl)amino)pyrido[3,2-d]pyrimidin-6-yl)piperazin-1-yl)prop-2-en-1-one], in that order: 13.3 nM, 9.86 nM and 3070 nM.
The like results for `C=CC(=O)N1CCN(c2ccc3ncnc(Nc4ccc(Oc5ccc6c(c5)ncn6C)c(C)c4)c3c2)C[C@H]1C` [Compound 58, 1-[(2R)-2-methyl-4-[4-({3-methyl-4-[(1-methyl-1,3-benzodiazol-5-yl)oxy]phenyl}amino)quinazolin-6-yl]piperazin-1-yl]prop-2-en-1-one] were, in that order, 24.1 nM, 31.4 nM and 2460 nM.
On to `C=CC(=O)N1C2CCC1CN(c1ccc3ncnc(Nc4ccc(Cc5ccn6ncnc6c5)c(C)c4)c3n1)C2` [Compound 127, 1-(3-(4-((4-([1,2,4]triazolo[1,5-a]pyridin-7-ylmethyl)-3-methylphenyl)amino)pyrido[3,2-d]pyrimidin-6-yl)-3,8-diazabicyclo[3.2.1]octan-8-yl)prop-2-en-1-one], for which the GI50 on Ba/F3 ERBB2 YVMA turned out to be 4.37 nM. The IC50 in experiment [1] is 17.5 nM; in experiment [2], 2150 nM.
The like results for `C=CC(=O)N1CCC2(CC1)CN(c1ccc3ncnc(Nc4ccc(Oc5ccn6ncnc6c5)c(C)c4)c3n1)C2` [Compound 19, 1-(2-{4-[(3-methyl-4-{[1,2,4]triazolo[1,5-a]pyridin-7-yloxy}phenyl)amino]pyrido[3,2-d]pyrimidin-6-yl}-2,7-diazaspiro[3.5]nonan-7-yl)prop-2-en-1-one] were, in that order, 176 nM, 98 nM and more than 10000 nM.
For `C=CC(=O)N1CCN(c2cc3c(Nc4ccc(Cc5ccc6c(c5)ncn6C)c(C)c4)ncnc3cn2)C[C@H]1C` [Compound 97, (R)-1-(2-methyl-4-(4-((3-methyl-4-((1-methyl-1H-benzo[d]imidazol-5-yl)methyl)phenyl)amino)pyrido[3,4-d]pyrimidin-6-yl)piperazin-1-yl)prop-2-en-1-one], in that order: 52.4 nM, 24.2 nM and 4950 nM.
For `C=CC(=O)N1CCN(c2ccc3ncnc(Nc4ccc(Cc5ccn6ncnc6c5)c(C)c4)c3n2)CC12CC2` [Compound 129, 1-(7-{4-[(3-methyl-4-{[1,2,4]triazolo[1,5-a]pyridin-7-ylmethyl}phenyl)amino]pyrido[3,2-d]pyrimidin-6-yl}-4,7-diazaspiro[2.5]octan-4-yl)prop-2-en-1-one], in that order: 5.32 nM, 21.5 nM and 317 nM.
Turning to `Cc1cc(Nc2ncnc3ccc(N4CCN(C(=O)/C=C/CN(C)C)CC4)nc23)ccc1Cc1ccc2c(c1)ncn2C` [Compound 120, (E)-4-(dimethylamino)-1-(4-(4-((3-methyl-4-((1-methyl-1H-benzo[d]imidazol-5-yl)methyl)phenyl)amino)pyrido[3,2-d]pyrimidin-6-yl)piperazin-1-yl)but-2-en-1-one], the GI50 at Ba/F3 ERBB2 YVMA worked out at 7.1 nM. In addition, the IC50 in experiment [1] came to 36.5 nM; in experiment [2], 2080 nM.
For `C=CC(=O)N1CCN(c2ccc3ncnc(Nc4ccc(Oc5ccn6ncnc6c5)c(C)c4)c3n2)[C@@H](C)C1` [Compound 12, 1-[(3S)-3-methyl-4-{4-[(3-methyl-4-{[1,2,4]triazolo[1,5-a]pyridin-7-yloxy}phenyl)amino]pyrido[3,2-d]pyrimidin-6-yl}piperazin-1-yl]prop-2-en-1-one], in that order: 7.49 nM, 13.6 nM and 1180 nM.
The like results for `C=CC(=O)N1CCN(c2cc3c(Nc4ccc(Oc5ccn6ncnc6c5)c(C)c4)ncnc3cn2)C[C@H]1C` [Compound 55, 1-[(2R)-2-methyl-4-{4-[(3-methyl-4-{[1,2,4]triazolo[1,5-a]pyridin-7-yloxy}phenyl)amino]pyrido[3,4-d]pyrimidin-6-yl}piperazin-1-yl]prop-2-en-1-one] were, in that order, 18.5 nM, 12 nM and 2580 nM.
The like results for `C=CC(=O)N1CC[C@@H](Oc2ccc3ncnc(Nc4ccc(Oc5ccn6ncnc6c5)c(C)c4)c3c2)C1` [Compound 36, (R)-1-(3-((4-((4-([1,2,4]triazolo[1,5-a]pyridin-7-yloxy)-3-methylphenyl)amino)quinazolin-6-yl)oxy)pyrrolidin-1-yl)prop-2-en-1-one] were, in that order, 98.7 nM, 17.8 nM and more than 10000 nM.
Regarding `CC#CC(=O)N1CC2CCC(C1)N2c1ccc2ncnc(Nc3ccc(Oc4ccn5ncnc5c4)c(C)c3)c2n1` [Compound 26, 1-(8-{4-[(3-methyl-4-{[1,2,4]triazolo[1,5-a]pyridin-7-yloxy}phenyl)amino]pyrido[3,2-d]pyrimidin-6-yl}-3,8-diazabicyclo[3.2.1]octan-3-yl)but-2-yn-1-one], the GI50 on Ba/F3 ERBB2 YVMA stood at 6.16 nM. The values for the IC50 in experiment [1] and in experiment [2] were 35.5 nM and 2350 nM, respectively.
The like results for `Cc1cc(Nc2ncnc3ccc(N4CCN(C(=O)/C=C/CN(C)C)[C@H](C)C4)nc23)ccc1Oc1ccn2ncnc2c1` [Compound 116, (R,E)-1-(4-(4-((4-([1,2,4]triazolo[1,5-a]pyridin-7-yloxy)-3-methylphenyl)amino)pyrido[3,2-d]pyrimidin-6-yl)-2-methylpiperazin-1-yl)-4-(dimethylamino)but-2-en-1-one] were, in that order, 10.1 nM, 21.9 nM and 1790 nM.
For `CC#CC(=O)N1CCN(c2ccc3ncnc(Nc4ccc(Oc5ccn6ncnc6c5)c(C)c4)c3n2)[C@H](C)C1` [Compound 24, 1-[(3R)-3-methyl-4-{4-[(3-methyl-4-{[1,2,4]triazolo[1,5-a]pyridin-7-yloxy}phenyl)amino]pyrido[3,2-d]pyrimidin-6-yl}piperazin-1-yl]but-2-yn-1-one], in that order: 68.9 nM, 91.4 nM and more than 10000 nM.
